Laboratory results taken from patent US9107446B2, “Solubilizates of preservatives and method for producing the same” (AQUANOVA AG, priority 2006, dated 2015).
Read-outs that look alike come from different tables or passages of the source.

Columns and labels:
bacteria = details: 500 mg added to nutrient solution with agar; about three weeks contact time
[1] = in water; cited from earlier work
[2] = cited from earlier work
Saccharomyces cerevisae = details: pH 6.2, room temperature; for Bacteria Count: 0.4 ml yeast solution

**Q.** Which results are given for `C/C=C/C=C/C(=O)[O-].[K+]` [Potassium Sorbate]?
**A.** Bacteria Count (bacteria): 1.6×10^10; Solubility, Water [1]: 138 g/100 g

**Q.** With `C/C=C/C=C/C(=O)O` [Sorbic Acid] as the compound, how does the “Anion, dis.” value ([2]; pH Value 3) read?
**A.** Its value is 1.7%.

**Q.** And the “Anion, dis.” value ([2]; pH Value 4.0)?
**A.** The value was 14.7%.

**Q.** And the “Anion, dis.” value ([2]; pH Value 5.0)?
**A.** The value was 63%.

**Q.** For `O=C(O)c1ccccc1` [Benzoic Acid], which “Bacteria Count” value (Saccharomyces cerevisae; Benzoic Acid Concentration 10 ppm, After 3 days) is on record?
**A.** Its value is 1,650,000/ml.

**Q.** And the “Bacteria Count” value (Saccharomyces cerevisae; Benzoic Acid Concentration 10 ppm, After 7 days)?
**A.** The value was 1,200,000/ml.

**Q.** What about the “Bacteria Count” value (Saccharomyces cerevisae; Benzoic Acid Concentration 10 ppm, After 15 days) of the same compound?
**A.** The value was 800,000/ml.

**Q.** What about the “Bacteria Count” value (Saccharomyces cerevisae; Benzoic Acid Concentration 10 ppm, After 22 days) of the same compound?
**A.** Its value is 1,100,000/ml.

**Q.** And the “Bacteria Count” value (Saccharomyces cerevisae; Benzoic Acid Concentration 10 ppm, After 29 days)?
**A.** Its value is 1,300,000/ml.

**Q.** What about the “Bacteria Count” value (Saccharomyces cerevisae; Benzoic Acid Concentration 10 ppm, Initial) of the same compound?
**A.** Its value is 2,900/ml.

**Q.** What about the “Bacteria Count” value (Saccharomyces cerevisae; Benzoic Acid Concentration 50 ppm, After 3 days) of the same compound?
**A.** The value was 1,900,000/ml.

**Q.** And the “Bacteria Count” value (Saccharomyces cerevisae; Benzoic Acid Concentration 50 ppm, After 7 days)?
**A.** Its value is 1,100,000/ml.

**Q.** And the “Bacteria Count” value (Saccharomyces cerevisae; Benzoic Acid Concentration 50 ppm, After 15 days)?
**A.** The value was 900,000/ml.

**Q.** What about the “Bacteria Count” value (Saccharomyces cerevisae; Benzoic Acid Concentration 50 ppm, After 22 days) of the same compound?
**A.** The value was 930,000/ml.

**Q.** What about the “Bacteria Count” value (Saccharomyces cerevisae; Benzoic Acid Concentration 50 ppm, After 29 days) of the same compound?
**A.** Its value is 1,300,000/ml.

**Q.** What about the “Bacteria Count” value (Saccharomyces cerevisae; Benzoic Acid Concentration 50 ppm, Initial) of the same compound?
**A.** Its value is 2,900/ml.

**Q.** What about the “Bacteria Count” value (Saccharomyces cerevisae; Benzoic Acid Concentration 100 ppm, After 3 days) of the same compound?
**A.** Its value is 670,000/ml.

**Q.** And the “Bacteria Count” value (Saccharomyces cerevisae; Benzoic Acid Concentration 100 ppm, After 7 days)?
**A.** Its value is 530,000/ml.

**Q.** What about the “Bacteria Count” value (Saccharomyces cerevisae; Benzoic Acid Concentration 100 ppm, After 15 days) of the same compound?
**A.** Its value is 600,000/ml.

**Q.** And the “Bacteria Count” value (Saccharomyces cerevisae; Benzoic Acid Concentration 100 ppm, After 22 days)?
**A.** Its value is 1,200,000/ml.

**Q.** And the “Bacteria Count” value (Saccharomyces cerevisae; Benzoic Acid Concentration 100 ppm, After 29 days)?
**A.** Its value is 900,000/ml.

**Q.** What about the “Bacteria Count” value (Saccharomyces cerevisae; Benzoic Acid Concentration 100 ppm, Initial) of the same compound?
**A.** The value was 2,900/ml.

**Q.** What about the “Bacteria Count” value (Saccharomyces cerevisae; Benzoic Acid Concentration 200 ppm, After 3 days) of the same compound?
**A.** Its value is 510,000/ml.

**Q.** And the “Bacteria Count” value (Saccharomyces cerevisae; Benzoic Acid Concentration 200 ppm, After 7 days)?
**A.** The value was 430,000/ml.

**Q.** And the “Bacteria Count” value (Saccharomyces cerevisae; Benzoic Acid Concentration 200 ppm, After 15 days)?
**A.** The value was 350,000/ml.

**Q.** What about the “Bacteria Count” value (Saccharomyces cerevisae; Benzoic Acid Concentration 200 ppm, After 22 days) of the same compound?
**A.** The value was 400,000/ml.

**Q.** And the “Bacteria Count” value (Saccharomyces cerevisae; Benzoic Acid Concentration 200 ppm, After 29 days)?
**A.** The value was 400,000/ml.

**Q.** And the “Bacteria Count” value (Saccharomyces cerevisae; Benzoic Acid Concentration 200 ppm, Initial)?
**A.** Its value is 2,900/ml.

**Q.** What about the “Bacteria Count” value (Saccharomyces cerevisae; Benzoic Acid Concentration 300 ppm, After 3 days) of the same compound?
**A.** Its value is 630,000/ml.

**Q.** What about the “Bacteria Count” value (Saccharomyces cerevisae; Benzoic Acid Concentration 300 ppm, After 7 days) of the same compound?
**A.** Its value is 400,000/ml.

**Q.** What about the “Bacteria Count” value (Saccharomyces cerevisae; Benzoic Acid Concentration 300 ppm, After 15 days) of the same compound?
**A.** The value was 520,000/ml.

**Q.** What about the “Bacteria Count” value (Saccharomyces cerevisae; Benzoic Acid Concentration 300 ppm, After 22 days) of the same compound?
**A.** The value was 250,000/ml.

**Q.** What about the “Bacteria Count” value (Saccharomyces cerevisae; Benzoic Acid Concentration 300 ppm, After 29 days) of the same compound?
**A.** The value was 230,000/ml.

**Q.** And the “Bacteria Count” value (Saccharomyces cerevisae; Benzoic Acid Concentration 300 ppm, Initial)?
**A.** The value was 2,900/ml.

**Q.** What about the “Bacteria Count” value (Saccharomyces cerevisae; Benzoic Acid Concentration 500 ppm, After 3 days) of the same compound?
**A.** The value was 700 mL⁻¹.

**Q.** And the “Bacteria Count” value (Saccharomyces cerevisae; Benzoic Acid Concentration 500 ppm, After 7 days)?
**A.** Its value is 55,000/ml.

**Q.** And the “Bacteria Count” value (Saccharomyces cerevisae; Benzoic Acid Concentration 500 ppm, After 15 days)?
**A.** The value was 230,000/ml.

**Q.** What about the “Bacteria Count” value (Saccharomyces cerevisae; Benzoic Acid Concentration 500 ppm, After 22 days) of the same compound?
**A.** The value was 120,000/ml.

**Q.** And the “Bacteria Count” value (Saccharomyces cerevisae; Benzoic Acid Concentration 500 ppm, After 29 days)?
**A.** The value was 43,000/ml.

**Q.** What about the “Bacteria Count” value (Saccharomyces cerevisae; Benzoic Acid Concentration 500 ppm, Initial) of the same compound?
**A.** Its value is 2,900/ml.

**Q.** And the “yeast growth (in words)” value (Saccharomyces cerevisae; benzoic acid concentration of 500 ppm, after 29 days of contact time)?
**A.** Its value is “high yeast growth”.

**Q.** What about the “Anion, dis.” value ([2]; pH Value 3) of the same compound?
**A.** The value was 6%.

**Q.** And the “Anion, dis.” value ([2]; pH Value 3.5)?
**A.** The value was 16.7%.

**Q.** And the “Anion, dis.” value ([2]; pH Value 4.0)?
**A.** The value was 38.7%.

**Q.** And the “Anion, dis.” value ([2]; pH Value 5.0)?
**A.** Its value is 86.5%.
